# Patent publication US20100279997A1, “ANALGESIC THAT BINDS FILAMIN A” (priority 2009, published 2010)
# Where two headings read alike, the source gives them in different places.
# How the values were obtained:
# [1] = tested on: MOR coupling to Gαs/olf and Gαo; assay: Relative Gs/Go switching, MOR-G protein coupling in organotypic striatal slice cultures; assay type: cell-based; details: rat striatal slices
# Experimental: Striatal slices ([…]) were prepared using a McIlwain tissue chopper (Mickle Laboratory Engineering Co., Surrey, UK). Slices were carefully transferred to sterile, porous culture inserts (0.4 μm, Millicell-CM) using the rear end of a glass Pasteur pipette. Each culture insert unit contained 2 slices and was placed into one well of the 12-well culture tray. […] The pH value was adjusted to 7.2 with HEPES buffer.
# Cultures were first incubated for 2 days to minimize the impact of injury from slice preparation. Incubator settings throughout the experiment were 36° C. with 5% CO2.
# Slices were returned to culture medium with normal serum after each drug exposure. Tissues were harvested 16 hours after the last drug exposure by centrifugation.
# For determination of MOR-G protein coupling, slices were homogenized to generate synaptic membranes. […] Following centrifugation, striatal membrane lysates were immunoprecipitated with immobilized anti-Gαs/olf or -Gαo conjugated with immobilized protein G-agarose beads. The level of MOR in anti-Gαs/olf or -Gαo immunoprecipitates was determined by Western blotting using specific anti-MOR antibodies.
# μ opiate receptor (MOR) = target: T1, μ opiate receptor (MOR) (Rattus norvegicus, UniProt P33535); assay: MOR agonist activity, [35S]GTPγS binding assay using striatal membranes; assay type: biochemical; details: for [35S]GTPγS binding to Gαo, FLNA-binding compound as agonist 0.1 μM: 0.1 μM compound; for [35S]GTPγS binding to Gαo, FLNA-binding compound as agonist 0.1 μM / [35S]GTPγS binding to Gαo, FLNA-binding compound as agonist 1 μM: striatal membranes; for [35S]GTPγS binding to Gαo, FLNA-binding compound as agonist 1 μM + BFNA: 1 μM compound + 1 μM β-funaltrexamine; for [35S]GTPγS binding to Gαo, FLNA-binding compound as agonist 1 μM: 1 μM compound; for % DAMGO + BFNA: relative to DAMGO + BFNA; for % DAMGO (0.1 μM) / % DAMGO (1 μM): relative to DAMGO
# T1 construct: from tissue; host or cells: striatal tissue (membrane preparation)
# Experimental: To assess the μ opiate receptor (MOR) agonist activity of positive compounds from the FLNA screening, compounds were tested in a [^35S]GTPγS binding assay using striatal membranes.
# Striatal tissue was homogenized in 10 volumes of ice cold 25 mM HEPES buffer, pH 7.4, which contained 1 mM EGTA, 100 mM sucrose, 50 μg/ml leupeptin, 0.04 mM PMSF, 2 μg/ml soybean trypsin inhibitor and 0.2% 2-mercaptoethanol. The homogenates were centrifuged at 800×g for 5 minutes and the supernatants were centrifuged at 49,000×g for 20 minutes. The resulting pellets were suspended in 10 volume of reaction buffer, which contained 25 mM HEPES, pH 7.5, 100 mM NaCl, 50 μg/ml leupeptin, 2 μg/ml soybean trypsin inhibitor, 0.04 mM PMSF and 0.02% […].
# The resultant striatal membrane preparation (200 μg) was admixed and maintained (incubated) at 30° C. for 5 minutes in reaction buffer as above that additionally contained 1 mM MgCl2 and 0.5 nM [^35S]GTPγS (0.1 μCi/assay, PerkinElmer Life and Analytical Sciences) in a total volume of 250 μl and continued for 5 minutes in the absence or presence of 0.1-10 μM of an assayed compound of interest. The reaction was terminated by dilution with 750 μl of ice-cold reaction buffer that contained 20 mM MgCl2 and 1 mM EGTA and immediate centrifugation at 16,000×g for 5 minutes.
# The resulting pellet was solubilized by sonicating for 10 seconds in 0.5 ml of immunoprecipitation buffer containing 0.5% digitonin, 0.2% sodium cholate and 0.5% NP-40. Normal rabbit serum (1 μl) was added to 1 ml of lysate and incubated at 25° C. for 30 minutes. Nonspecific immune complexes were removed by incubation with 25 μl of protein A/G-conjugated agarose beads at 25° C. for 30 minutes followed by centrifugation at 5,000×g at 4° C. for 5 minutes. The supernatant was divided and separately incubated at 25° C. for 30 minutes with antibodies raised against Gao proteins (1:1,000 dilutions).
# The immunocomplexes so formed were collected by incubation at 25° C. for 30 minutes with 40 μl of agarose-conjugated protein A/G beads and centrifugation at 5,000×g at 4° C. for 5 minutes. The pellet was washed and suspended in buffer containing 50 mM Tris-HCl, pH 8.0, and 1% NP-40. The radioactivity in the suspension was determined by liquid scintillation spectrometry. […] DAMGO (H-Tyr-D-Ala-Gly-N-MePhe-Gly-OH; 1 or 10 μM) was used as a positive control.
# [2] = Mouse hot-water tail-flick test; assay type: in vivo
# Experimental: The mouse “tail flick” test was used to assay the relative antinociceptive activity of compositions containing a compound to be assayed. This assay was substantially that disclosed by Xie et al., 2005 J. Neurosci 25:409-416.
# The mouse hot-water tail-flick test was performed by placing the distal third of the tail in a water bath maintained at 52° C. The latency until tail withdrawal from the bath was determined and compared among the treatments. A 10 second cutoff was used to avoid tissue damage. Data are converted to percentage of antinociception by the following formula: (response latency−baseline latency)/(cutoff−baseline latency)×100 to generate dose-response curves. […] Relative potency was determined as a ratio of the A50 values.
# To assess tolerance to the antinociceptive effect, the compound was administered twice daily for 7 days at an A90 dose (dose that results in a 90% antinociceptive effect in the 52° C. warm-water tail-flick test), and the tail-flick test was performed daily after the a.m. dose.
# [3] = target: Bn-VAKGL pentapeptide of filamin A (FLNA) (Homo sapiens, UniProt P21333); assay: FITC-NLX-based FLNA screening assay (FLNA peptide binding assay)
# Experimental: The final assay volume is 100 μl.
# Compounds are tested in triplicate or quadruplicate.
# filamin A = filamin A (Homo sapiens, UniProt P21333); details: Wang et al, 2008 PLoS One 3:e1554; read-out: affinity of binding to filamin A; cited from earlier work
# [4] = read-out: Percent inhibition of FITC-NLX binding, 0.01 μM, 0.01 μM compound, 10 nM FITC-NLX
# [5] = read-out: Percent inhibition of FITC-NLX binding, 0.1 μM, 0.1 μM compound, 10 nM FITC-NLX
# [6] = read-out: Percent inhibition of FITC-NLX binding, 1 μM, 1 μM compound, 10 nM FITC-NLX
# [7] = read-out: Percent inhibition of FITC-NLX binding, 0.01 μM
# [8] = read-out: Percent inhibition of FITC-NLX binding, 0.1 μM
# [9] = read-out: Percent inhibition of FITC-NLX binding, 1 μM
# T1 sequence (P33535 whole entry): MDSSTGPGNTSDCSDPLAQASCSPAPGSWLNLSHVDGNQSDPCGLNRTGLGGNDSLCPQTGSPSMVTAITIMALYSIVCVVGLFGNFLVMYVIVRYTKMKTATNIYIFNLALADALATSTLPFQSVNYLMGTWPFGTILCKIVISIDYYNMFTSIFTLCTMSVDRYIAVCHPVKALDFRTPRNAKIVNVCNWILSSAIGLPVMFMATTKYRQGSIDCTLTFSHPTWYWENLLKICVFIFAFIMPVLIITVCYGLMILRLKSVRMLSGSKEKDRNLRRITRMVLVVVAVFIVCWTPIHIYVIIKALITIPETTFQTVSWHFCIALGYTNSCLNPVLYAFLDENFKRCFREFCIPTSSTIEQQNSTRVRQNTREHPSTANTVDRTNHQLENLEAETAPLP
# Sequence of filamin A (P21333 whole entry): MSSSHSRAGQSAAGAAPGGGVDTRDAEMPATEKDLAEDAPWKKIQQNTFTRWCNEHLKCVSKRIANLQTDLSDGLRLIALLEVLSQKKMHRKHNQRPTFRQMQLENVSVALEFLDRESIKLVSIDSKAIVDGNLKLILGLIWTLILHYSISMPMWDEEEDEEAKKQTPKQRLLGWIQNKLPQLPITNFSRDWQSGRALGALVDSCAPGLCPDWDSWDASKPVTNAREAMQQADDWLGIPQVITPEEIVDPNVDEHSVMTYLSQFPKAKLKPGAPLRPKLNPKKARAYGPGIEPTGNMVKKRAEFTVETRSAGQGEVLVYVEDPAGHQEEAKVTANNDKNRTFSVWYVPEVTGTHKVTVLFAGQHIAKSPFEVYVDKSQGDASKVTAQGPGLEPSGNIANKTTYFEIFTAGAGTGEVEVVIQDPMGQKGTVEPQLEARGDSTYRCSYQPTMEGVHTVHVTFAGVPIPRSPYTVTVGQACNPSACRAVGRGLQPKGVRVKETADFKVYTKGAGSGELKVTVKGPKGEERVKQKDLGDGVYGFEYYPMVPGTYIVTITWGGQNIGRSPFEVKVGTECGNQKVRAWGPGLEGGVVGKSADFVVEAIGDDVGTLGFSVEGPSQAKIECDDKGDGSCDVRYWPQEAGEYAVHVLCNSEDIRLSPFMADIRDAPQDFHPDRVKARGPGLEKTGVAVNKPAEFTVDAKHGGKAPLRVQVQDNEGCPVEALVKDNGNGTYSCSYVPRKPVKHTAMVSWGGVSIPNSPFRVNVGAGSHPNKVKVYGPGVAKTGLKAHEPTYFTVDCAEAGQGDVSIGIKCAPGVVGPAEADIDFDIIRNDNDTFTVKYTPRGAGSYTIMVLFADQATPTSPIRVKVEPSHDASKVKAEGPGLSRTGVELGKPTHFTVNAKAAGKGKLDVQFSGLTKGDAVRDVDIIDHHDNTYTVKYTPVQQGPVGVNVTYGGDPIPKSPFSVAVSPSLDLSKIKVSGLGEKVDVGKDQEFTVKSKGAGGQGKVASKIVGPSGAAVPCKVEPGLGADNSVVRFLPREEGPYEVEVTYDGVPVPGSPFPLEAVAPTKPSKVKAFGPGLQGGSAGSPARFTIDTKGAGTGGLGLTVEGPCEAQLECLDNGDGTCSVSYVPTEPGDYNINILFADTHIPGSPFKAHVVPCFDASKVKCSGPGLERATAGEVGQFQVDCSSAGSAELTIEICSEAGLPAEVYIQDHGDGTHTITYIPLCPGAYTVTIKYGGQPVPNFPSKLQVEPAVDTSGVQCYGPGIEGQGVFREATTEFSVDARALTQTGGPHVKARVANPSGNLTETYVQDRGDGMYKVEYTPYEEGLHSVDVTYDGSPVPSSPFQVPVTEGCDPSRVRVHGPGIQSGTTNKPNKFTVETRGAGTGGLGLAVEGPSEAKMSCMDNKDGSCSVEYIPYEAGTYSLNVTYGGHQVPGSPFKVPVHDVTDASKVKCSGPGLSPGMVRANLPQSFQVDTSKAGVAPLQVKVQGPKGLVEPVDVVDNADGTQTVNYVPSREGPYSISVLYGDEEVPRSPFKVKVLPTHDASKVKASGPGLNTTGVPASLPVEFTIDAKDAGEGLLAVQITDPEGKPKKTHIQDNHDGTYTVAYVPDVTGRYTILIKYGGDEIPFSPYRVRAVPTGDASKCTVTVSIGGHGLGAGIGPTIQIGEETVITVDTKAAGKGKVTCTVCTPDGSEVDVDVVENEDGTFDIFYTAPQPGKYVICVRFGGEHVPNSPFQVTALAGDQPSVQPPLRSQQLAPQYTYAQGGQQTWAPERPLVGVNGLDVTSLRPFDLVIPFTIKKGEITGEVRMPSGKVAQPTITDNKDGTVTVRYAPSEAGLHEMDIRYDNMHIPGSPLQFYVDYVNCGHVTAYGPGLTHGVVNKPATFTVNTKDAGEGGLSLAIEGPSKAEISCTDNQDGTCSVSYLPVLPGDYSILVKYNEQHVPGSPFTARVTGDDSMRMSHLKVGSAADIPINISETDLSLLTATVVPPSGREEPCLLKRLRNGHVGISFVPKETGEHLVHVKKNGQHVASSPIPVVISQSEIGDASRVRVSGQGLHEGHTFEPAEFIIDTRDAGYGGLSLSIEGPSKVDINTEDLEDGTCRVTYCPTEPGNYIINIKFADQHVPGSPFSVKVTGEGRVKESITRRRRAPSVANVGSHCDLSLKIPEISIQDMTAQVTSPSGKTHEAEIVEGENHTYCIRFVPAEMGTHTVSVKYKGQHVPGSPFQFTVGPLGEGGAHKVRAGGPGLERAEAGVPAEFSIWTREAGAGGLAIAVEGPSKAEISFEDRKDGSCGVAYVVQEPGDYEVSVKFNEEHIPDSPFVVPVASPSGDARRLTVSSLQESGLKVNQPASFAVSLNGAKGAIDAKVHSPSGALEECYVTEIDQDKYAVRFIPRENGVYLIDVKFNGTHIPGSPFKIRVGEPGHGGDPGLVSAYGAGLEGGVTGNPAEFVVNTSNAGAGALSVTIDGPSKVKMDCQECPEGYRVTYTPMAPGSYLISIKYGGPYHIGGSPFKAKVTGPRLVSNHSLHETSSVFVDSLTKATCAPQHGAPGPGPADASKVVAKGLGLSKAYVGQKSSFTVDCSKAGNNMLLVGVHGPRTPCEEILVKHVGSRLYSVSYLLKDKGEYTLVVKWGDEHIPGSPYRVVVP
SMILES,"mean maximum antinociception ([2]; oral, 56 mg/kg)","[35S]GTPγS binding to Gαo, FLNA-binding compound as agonist 0.1 μM (μ opiate receptor (MOR)) [%]","[35S]GTPγS binding to Gαo, FLNA-binding compound as agonist 1 μM + BFNA (μ opiate receptor (MOR)) [%]","[35S]GTPγS binding to Gαo, FLNA-binding compound as agonist 1 μM (μ opiate receptor (MOR)) [%]",% DAMGO + BFNA (μ opiate receptor (MOR)) [%],% DAMGO (0.1 μM) (μ opiate receptor (MOR)) [%],% DAMGO (1 μM) (μ opiate receptor (MOR)) [%],further results
CC1CCC(C(C)C)C(OCC(O)CN2CC(C)OC(C)C2)C1 (centres unmarked) [Compound 3333],–,–,–,–,–,–,–,"Go (MOR in anti-Gαo immunoprecipitate), average ([1]; 10 μM): 1426.3; Gs/Go-Coupled Ratio, average ([1]; 10 μM): 0.761; Gs/olf (MOR in anti-Gαs/olf immunoprecipitate), average ([1]; 10 μM): 1079.0; Go (MOR in anti-Gαo immunoprecipitate), average ([1]; 100 μM): 1418.8; Gs/Go-Coupled Ratio, average ([1]; 100 μM): 0.756; Gs/olf (MOR in anti-Gαs/olf immunoprecipitate), average ([1]; 100 μM): 1064.8; [35S]GTPγS binding to Gαo, FLNA-binding compound as agonist 0.1 μM (μ opiate receptor (MOR); listed as A3333): 170.7%; [35S]GTPγS binding to Gαo, FLNA-binding compound as agonist 1 μM + BFNA (μ opiate receptor (MOR); listed as A3333): 65.9%; [35S]GTPγS binding to Gαo, FLNA-binding compound as agonist 1 μM (μ opiate receptor (MOR); listed as A3333): 328.3%"
CC1CCC(C(C)C)C(OCC(O)CN2CCN(CCN3CCOCC3)CC2)C1 (centres unmarked) [Compound A0011],about 38%,236.3,47.0,287.5,–,–,–,–
CC1CCCC(OCC(O)CN2CC(C)OC(C)C2)C1 (centres unmarked) [Compound A0021],about 25%,133.3,12.1,275.3,–,–,–,–
CC1CN(CC(O)COc2ccc(Br)c(F)c2)CC(C)O1 (centres unmarked) [Compound A0041],–,212.7,50.6,283.6,–,–,–,mean maximum antinociception ([2]; 32 mg/kg): about 12%; time of maximum antinociception ([2]; 32 mg/kg): 10 to 15 min
CC1CN(CC(O)COc2cccc(F)c2)CC(C)O1 (centres unmarked) [Compound A0049],about 45%,232.3,107.1,370.3,–,–,–,–
OC(COc1ccccc1Br)CN1CCN(CCN2CCOCC2)CC1 (centres unmarked) [Compound A0064],–,219.2,43.7,262.9,126.7,127.4,119.7,"mean maximum antinociception ([2]; 32 mg/kg): about 50%; time of maximum antinociception ([2]; 32 mg/kg): 30 to 50 min; inhibition at 0.01 µM [3, 4]: 41.8%; inhibition at 0.1 µM [3, 5]: 46.2%; inhibition at 1 µM [3, 6]: 53.6%"
CC1CCC(C(C)C)C(OCC(O)CN2CCc3ccccc32)C1 (centres unmarked) [Compound A0065],about 25%,197.6,44.9,266.8,112.5,126.6,115.7,"inhibition at 0.01 µM [3, 7]: 38.7%; inhibition at 0.1 µM [3, 8]: 50%; inhibition at 1 µM [3, 9]: 50.8%"
COc1ccc(OCC(O)CN2CCCc3ccccc32)cc1 (centres unmarked) [Compound A0067],–,170.8,33.9,254.4,98.3,99.2,115.8,"inhibition at 0.01 µM [3, 4]: 32.7%; inhibition at 0.1 µM [3, 5]: 39.1%; inhibition at 1 µM [3, 6]: 44.3%"
COc1ccc(OCC(O)CN2CCc3cc4c(c(OC)c3C2)OCO4)cc1 (centres unmarked) [Compound A0070],–,128.6,80.3,195.3,232.8,74.7,88.9,"inhibition at 0.01 µM [3, 4]: 32.9%; inhibition at 0.1 µM [3, 5]: 39.1%; inhibition at 1 µM [3, 6]: 41.7%"
COc1ccc(OCC(O)CN2CCC(=O)CC2)cc1 (centres unmarked) [Compound A0071],–,225.7,239.4,310.9,1088.2,128.2,122.9,"inhibition at 0.01 µM [3, 4]: 44.7%; inhibition at 0.1 µM [3, 5]: 46.8%; inhibition at 1 µM [3, 6]: 53.9%"
CC1CCC(C(C)C)C(OCC(O)CN2CCN(Cc3ccccc3)CC2)C1 (centres unmarked) [Compound A0072],–,254.3,171.8,305.1,318.7,126.8,97.2,"inhibition at 0.01 µM [3, 7]: 45.5%; inhibition at 0.1 µM [3, 8]: 52.2%; inhibition at 1 µM [3, 9]: 59.4%"
COc1ccc(OCC(O)CN2CCN(Cc3ccccc3)CC2)cc1 (centres unmarked) [Compound A0073],–,201.7,185.8,325.7,344.7,100.5,103.7,"inhibition at 0.01 µM [3, 7]: 47.3%; inhibition at 0.1 µM [3, 8]: 54.8%; inhibition at 1 µM [3, 9]: 59.7%"
"C=CCN1CC[C@]23c4c5ccc(O)c4O[C@H]2C(=O)CC[C@@]3(O)[C@H]1C5 [NLX, naloxone]",–,–,–,–,–,–,–,Kd (filamin A): ~4 pM
"O=C1CC[C@@]2(O)[C@H]3Cc4ccc(O)c5c4[C@@]2(CCN3CC2CC2)[C@H]1O5 [NTX, naltrexone]",–,–,–,–,–,–,–,Kd (filamin A): ~4 pM
"CN1CC[C@]23c4c5ccc(O)c4O[C@H]2[C@@H](O)C=C[C@H]3[C@H]1C5 [morphine, reference compound]",about 43%,–,–,–,–,–,–,"time of maximum antinociception (peak activity) ([2]; oral, 56 mg/kg): about 20 minutes; time of maximum antinociception (peak activity) ([2]; oral, 56 mg/kg, listed as Morphine): twenty; A50 (dose that resulted in a 50% antinociceptive effect), with 95% CI ([2]; orally administered, 52° C. tail flick): 61.8 (52.4-72.9) mg/kg"
